Source: patent US8414660B2, “Haloferax volcanii laccase and variants and fragments thereof” (University of Florida Research Foundation, Inc., priority 2009, dated 2013)
Where “and” joins values, the source holds several entries; their conditions need not be identical. Equal entries are not always repeated. Where two headings read alike, the source gives them in different places.

Experiments:
[1] = biological target: T1, LccA isolated from Hfx. volcanii SB01 (Haloferax volcanii, UniProt D4GPK6); assay: biochemical; conditions: for inhibition at 10000 µM: read-out: Inhibition / reduction in LccA activity; for Inhibition of observed LccA activity: 0.1 to 1 mM
T1 construct: made in house; host or cells: Haloferax volcanii SB01 (H26 carrying plasmid pJAM822), secreted into culture broth
T1 sequence (D4GPK6 32-579): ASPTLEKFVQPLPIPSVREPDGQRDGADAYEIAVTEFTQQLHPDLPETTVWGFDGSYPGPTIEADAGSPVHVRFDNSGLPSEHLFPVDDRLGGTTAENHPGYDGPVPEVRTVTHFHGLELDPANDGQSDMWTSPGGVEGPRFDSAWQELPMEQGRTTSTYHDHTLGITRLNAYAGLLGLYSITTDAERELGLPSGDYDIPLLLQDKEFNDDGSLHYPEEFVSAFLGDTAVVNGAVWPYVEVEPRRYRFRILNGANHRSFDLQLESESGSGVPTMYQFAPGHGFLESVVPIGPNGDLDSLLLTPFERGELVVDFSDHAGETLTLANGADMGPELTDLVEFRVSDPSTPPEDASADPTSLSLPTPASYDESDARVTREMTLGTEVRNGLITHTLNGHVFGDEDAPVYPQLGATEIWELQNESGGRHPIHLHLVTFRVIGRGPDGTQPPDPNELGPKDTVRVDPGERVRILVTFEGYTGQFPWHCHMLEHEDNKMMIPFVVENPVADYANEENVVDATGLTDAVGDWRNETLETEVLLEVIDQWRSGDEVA

[2] = literature; cited from earlier work
[3] = comparator laccase-like enzymes, literature, cited from earlier work
[4] = comparator laccase-like enzymes, literature, cited from earlier work; remark: listed apart in the source
[5] = Laccase activity assay, oxidation of SGZ (syringaldazine)
Description: LccA (51 μg·ml^−1) activity was assayed at different temperatures (22° to 70° C.) in T buffer with 185 mM NaCl using SGZ (1 mM) as the substrate. […] LccA activity was assayed with SGZ (●) from pH 6 to 11 and with ABTS (◯) from pH 3 to 8 at 45° C. using following buffers: 100 mM sodium acetate for pH 3 to 6, 25 mM Tris-HCl for pH 7 to 10, and 25 mM glycine-NaOH for pH 11. Activity is expressed as percent relative to oxidation of ABTS at pH 6. […] Purified enzyme (50.6 μg·ml^−1) was pre-incubated in T buffer supplemented with 185 mM NaCl at temperatures from 37° to 70° C. for up to 60 h, as indicated. […] Activity is presented as percent relative to incubation on ice (37° C. (●), 45° C. (▪), 50° C. (▴), 55° C. (♦), 60° C. (◯), 65° C. (□) and 70° C. (Δ)); FIG. 6E-Salt tolerance of LccA protein. Purified enzyme (16.5 μg·ml^−1) was pre-incubated for 30 min in T buffer at pH 8.4 supplemented with different concentrations of NaCl (0 to 1.4 M) as indicated. Samples were diluted to a final concentration 4.12 μg·ml^−1 protein and 185 mM NaCl in T buffer and assayed for SGZ oxidizing activity under standard conditions. Residual activity was calculated as percent relative to incubation at 185 mM NaCl. […] Enzyme (7.5 μg·ml^−1) was incubated in T buffer with 185 mM NaCl in the presence and absence of 25% (v/v) solvent (DMSO, DMF, ethanol and methanol) at room temperature for 90 min (white bar), 3 h (grey bar) and 24 h (black bar). […] Activity is calculated as percent relative to incubation without solvent.
Enzyme activity was determined by change in absorbance, in triplicate, by UV/Visible-spectroscopy using a BioTek Synergy HT multi-detection microplate reader with a 96-well plate. Oxidation of substrate was monitored by absorbance increase (ABTS at 420 nm with ε=36,000 M^−1 cm^−1; SGZ at 526 nm with ε=65,000 M^−1 cm^−1; DMP at 468 nm with ε=49,000 M^−1 cm^−1; guaiacol at 436 nm with ε=26,600 M^−1 cm^−1; ferrous ammonium sulfate at 315 nm with ε=2,200 M^−1 cm^−1) or decrease (bilirubin at 440 nm with ε=56,300 M^−1 cm^−1). Standard assay conditions were 185 mM NaCl at 45° C. with the following buffers and substrate concentrations: 100 mM sodium acetate buffer at pH 6.0 for ABTS (at 5 mM), DMP (at 2 mM) and guaiacol (at 5 mM); 25 mM Tris-HCl buffer at pH 8.4 for SGZ (at 1 mM); and 200 mM Tris-HCl buffer at pH 8.4 for bilirubin (0.45 mM). Copper sulfate (1 mM) was included for assay of DMP oxidation. Oxidation of ferrous ammonium sulphate (1 mM) was monitored at 315 nm (ε=2,200 M^−1 cm^−1) with and without salt (185 mM NaCl) in 100 mM MES (morpholineethanesulfonic acid) buffer at pH 5 as well as 25 mM Tris-HCl buffer at pH 7.0 and 8.4. One unit of enzyme activity is defined as the amount of enzyme that oxidizes 1 μmol of substrate per min at standard conditions. […] Kinetic parameters (Km, Vmax, and kcat) were determined using the Michaelis-Menten equation. […] All assays and protein purifications were performed at least in triplicate.
To further evaluate the catalytic properties of LccA, the temperature, pH and salt optima of the purified enzyme were determined using SGZ and/or ABTS as substrates.

[6] = compound 1 mM, 10 min at 45° C.
[7] = compound 10 mM, 10 min at 45° C.
[8] = compound 0.1 mM, 10 min at 45° C.

With `O=C(O)CN(CCN(CC(=O)O)CC(=O)O)CC(=O)O` [EDTA] the “Inhibitory activity toward LccA” value [1] was “no inhibitory activity” and the “Relative Activity of LccA” value [1] was 100.6 ± 1.8% and 106.3 ± 5.8% and 123.6 ± 3.2% and 123.7 ± 3.0%.

With `c1cnc2c(c1)ccc1cccnc12` [1,10-Phenanthroline] the inhibition at 10000 µM ([1]; 10 mM) was 90%, the “Relative Activity of LccA” value [1, 6] was 85.3 ± 3.4% and the “Relative Activity of LccA” value [1, 7] was 10.9 ± 3.9%.

In the case of `NC(N)=S` [Thiourea], the inhibition at 10000 µM ([1]; 10 mM) is reported as 90%, the “Relative Activity of LccA” value [1, 6] is reported as 96.5 ± 3.9% and the “Relative Activity of LccA” value [1, 7] is reported as 9.5 ± 1.3%.

For `c1ccc(-c2ccccn2)nc1` [2,2-Dipyridyl], the “Inhibition / reduction in LccA activity” value ([1]; 10 mM) was 25%, the “Relative Activity of LccA” value [1, 6] was 86.6 ± 3.3% and the “Relative Activity of LccA” value [1, 7] was 75.2 ± 2.3%.

For `O[C@@H](CS)[C@@H](O)CS` (racemic) [DL-Dithiothretol], the “Inhibition of observed LccA activity” value [1] was “strong inhibitors”, the “Relative Activity of LccA” value ([1]; compound 0.01 mM, 10 min at 45° C.) was 90.5 ± 5.5% and the “Relative Activity of LccA” value [1, 8] was “u.d”. The “Relative Activity of LccA” value [1, 6] was “u.d”.

For McoA [reference compound], the Temperature optimum [2] is given as 70 °C.

For `N[C@@H](CS)C(=O)O` [L-Cysteine], the “Inhibition of observed LccA activity” value [1] was “strong inhibitors”, the “Relative Activity of LccA” value [1, 8] was 83.0 ± 3.7% and the “Relative Activity of LccA” value [1, 6] was “u.d.^c”.

B1: CotA, Bacillus subtilis: Bacillus subtilis spore coat protein A with laccase activity (Martins et al., 2002) (protein, UniProt P07788 1-513, looked up)
Laccase: MTLEKFVDALPIPDTLKPVQQSKEKTYYEVTMEECTHQLHRDLPPTRLWGYNGLFPGPTIEVKRNENVYVKWMNNLPSTHFLPIDHTIHHSDSQHEEPEVKTVVHLHGGVTPDDSDGYPEAWFSKDFEQTGPYFKREVYHYPNQQRGAILWYHDHAMALTRLNVYAGLVGAYIIHDPKEKRLKLPSDEYDVPLLITDRTINEDGSLFYPSAPENPSPSLPNPSIVPAFCGETILVNGKVWPYLEVEPRKYRFRVINASNTRTYNLSLDNGGDFIQIGSDGGLLPRSVKLNSFSLAPAERYDIIIDFTAYEGESIILANSAGCGGDVNPETDANIMQFRVTKPLAQKDESRKPKYLASYPSVQHERIQNIRTLKLAGTQDEYGRPVLLLNNKRWHDPVTETPKVGTTEIWSIINPTRGTHPIHLHLVSFRVLDRRPFDIARYQESGELSYTGPAVPPPPSEKGWKDTIQAHAGEVLRIAATFGPYSGRYVWHCHILEHEDYDMMRPMDITDPHK
In the case of B1, the “kcat, SGZ” value [3] is listed as 3.7 s⁻¹, the Km ([3]; read-out: Km, SGZ) is listed as 26 µM and the “kcat, ABTS” value [4] is listed as 16.8 s⁻¹. For the same molecule, the Km ([4]; read-out: Km, ABTS) was 106 µM and the Temperature optimum [2] was 75 °C.

B2: LccA-StrepII: LccA with a C-terminal StrepII tag (-WSHPQFEK), purified from Hfx. volcanii SB01 (protein, UniProt D4GPK6 32-579, looked up)
Laccase: T1 sequence (D4GPK6 32-579)
modifications: C-terminal StrepII tag
In the case of B2, the “Specific activity lower than US02 purified LccA” value ([5]; SGZ oxidation) is reported as “over 20 fold” and the “Specific activity, SGZ oxidation” value ([5]; purified from culture broth of Hfx. volcanii SB01 (C-terminal StrepII tag), final MonoQ 10/10 pH 8.4) is reported as 1.3 U·mg^−1.
